Experimental findings from patent publication US20230092890A1, “1, 3, 4-Oxadiazole derivative compounds as histone deacetylase 6 inhibitor, and the pharmaceutical composition comprising the same” (Chong Kun Dang Pharmaceutical Corp., priority 2019, published 2023) are described below.

One assay concerns the target T1, HDAC6 human recombinant (Homo sapiens, UniProt Q9UBN7).
T1 construct: purchased Calbiochem 382180
T1 sequence (Q9UBN7 1-1215): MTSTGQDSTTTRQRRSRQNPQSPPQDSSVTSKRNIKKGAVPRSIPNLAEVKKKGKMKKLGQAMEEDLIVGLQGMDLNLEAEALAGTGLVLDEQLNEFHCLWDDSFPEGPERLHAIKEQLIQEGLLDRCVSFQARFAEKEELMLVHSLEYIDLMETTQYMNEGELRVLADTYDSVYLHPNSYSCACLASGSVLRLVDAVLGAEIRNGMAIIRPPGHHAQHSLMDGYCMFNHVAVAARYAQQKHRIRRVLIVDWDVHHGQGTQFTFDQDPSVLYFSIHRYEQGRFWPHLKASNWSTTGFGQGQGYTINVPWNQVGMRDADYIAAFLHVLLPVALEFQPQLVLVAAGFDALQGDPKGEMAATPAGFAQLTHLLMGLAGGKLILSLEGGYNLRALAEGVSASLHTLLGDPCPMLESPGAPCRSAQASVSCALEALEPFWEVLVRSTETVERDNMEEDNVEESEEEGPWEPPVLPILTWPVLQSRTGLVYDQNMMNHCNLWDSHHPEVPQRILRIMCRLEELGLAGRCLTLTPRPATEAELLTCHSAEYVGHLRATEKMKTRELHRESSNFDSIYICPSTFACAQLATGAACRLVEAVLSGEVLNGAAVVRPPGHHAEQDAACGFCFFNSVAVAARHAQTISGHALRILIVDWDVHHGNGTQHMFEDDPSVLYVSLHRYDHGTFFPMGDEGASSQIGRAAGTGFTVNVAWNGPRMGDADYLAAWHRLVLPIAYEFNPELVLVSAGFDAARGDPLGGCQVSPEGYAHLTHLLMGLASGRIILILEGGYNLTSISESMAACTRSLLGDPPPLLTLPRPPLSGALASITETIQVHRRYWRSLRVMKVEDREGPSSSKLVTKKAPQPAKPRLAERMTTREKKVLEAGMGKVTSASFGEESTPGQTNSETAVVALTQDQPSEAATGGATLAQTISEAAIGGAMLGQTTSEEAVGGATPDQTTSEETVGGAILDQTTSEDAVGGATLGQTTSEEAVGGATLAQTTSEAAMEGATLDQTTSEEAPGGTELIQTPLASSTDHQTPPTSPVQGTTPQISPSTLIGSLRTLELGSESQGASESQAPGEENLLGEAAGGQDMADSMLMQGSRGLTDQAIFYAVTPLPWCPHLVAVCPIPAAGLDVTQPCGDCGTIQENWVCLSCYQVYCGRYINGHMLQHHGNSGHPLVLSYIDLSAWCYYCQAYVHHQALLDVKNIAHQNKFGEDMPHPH
The experiment in a line: HDAC enzyme activity inhibition (in vitro), HDAC6 assay. The assay is classed as biochemical. The conditions noted are these: samples at 0.1, 1, 10, 100 and 1000 nM; 37° C. 60 minutes; fluorescence Ex 390, Em 460; read-out: HDAC6 IC50. The essentials:
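HDAC6 human recombinant enzyme with fluorimetric substrate; […]. Reaction 60 min at 37° C, then developer 30 min at 37° C; fluorescence read at Ex 390/Em 460.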

The target of another assay is T2, HDAC1 (Homo sapiens, UniProt Q13547).
T2 construct: purchased Enzolifesciences BML-AK511
Nature of the assay: HDAC enzyme activity inhibition (in vitro), HDAC1 Fluorimetric Drug Discovery Assay Kit. To be noted: samples at 100, 1000 and 10000 nM; 37° C. 60 minutes; fluorescence Ex 390, Em 460; read-out: HDAC1 IC50. The assay is classed as biochemical. Summed up:
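HDAC1 was tested at 100, 1000 and 10000 nM and recombinant human HDAC6 at 0.1, 1, 10, 100 and 1000 nM. Enzyme reactions ran 60 min at 37° C, then developer was added for 30 min at 37° C, and fluorescence (Ex 390, Em 460) was read.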

T2 sequence (Q13547 whole entry): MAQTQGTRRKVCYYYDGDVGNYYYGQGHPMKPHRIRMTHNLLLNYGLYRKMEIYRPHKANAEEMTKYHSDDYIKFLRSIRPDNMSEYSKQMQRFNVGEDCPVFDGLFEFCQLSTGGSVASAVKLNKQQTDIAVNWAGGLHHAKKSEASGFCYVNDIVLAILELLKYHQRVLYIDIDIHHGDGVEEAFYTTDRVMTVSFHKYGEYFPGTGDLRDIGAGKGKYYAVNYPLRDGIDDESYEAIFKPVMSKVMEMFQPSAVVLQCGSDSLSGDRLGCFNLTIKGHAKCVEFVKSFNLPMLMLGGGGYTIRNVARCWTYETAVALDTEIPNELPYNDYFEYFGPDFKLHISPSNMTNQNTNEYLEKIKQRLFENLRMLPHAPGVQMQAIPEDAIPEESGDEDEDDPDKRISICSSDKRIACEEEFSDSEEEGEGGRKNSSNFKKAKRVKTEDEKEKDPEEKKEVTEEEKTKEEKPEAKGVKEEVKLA

One may read the IC50 as the concentration that inhibits the measured activity by half. Consider `CN1CCC(n2c(=O)n(Cc3ccc(-c4nnc(C(F)F)o4)cn3)c3ccc(-c4ccoc4)cc32)CC1` [Compound 137, 1-((5-(5-(difluoromethyl)-1,3,4-oxadiazole-2-yl)pyridine-2-yl)methyl)-5-(furan-3-yl)-3-(1-methylpiperidine-4-yl)-1,3-dihydro-2H-benzo[d]imidazole-2-one], for which the results for the IC50 at HDAC6 human recombinant and on HDAC1 were 19 nM and above 10 µM, respectively.
For `CN1CCC(n2c(=O)n(Cc3ccc(-c4nnc(C(F)F)o4)cn3)c3ccc(-c4ccco4)cc32)CC1` [Compound 138, 1-((5-(5-(difluoromethyl)-1,3,4-oxadiazole-2-yl)pyridine-2-yl)methyl)-5-(furan-2-yl)-3-(1-methylpiperidine-4-yl)-1,3-dihydro-2H-benzo[d]imidazole-2-one], the IC50 was 19 nM on HDAC6 human recombinant and above 10 µM on HDAC1.
Consider `CN1CCC(n2c(=O)n(Cc3ccc(-c4nnc(C(F)F)o4)cc3F)c3ccc(-c4cccnc4)cc32)CC1` [Compound 139, 1-(4-(5-(difluoromethyl)-1,3,4-oxadiazole-2-yl)-2-fluorobenzyl)-3-(1-methylpiperidine-4-yl)-5-(pyridine-3-yl)-1,3-dihydro-2H-benzo[d]imidazole-2-one], for which the IC50 on HDAC6 human recombinant was 31 nM; on HDAC1, above 10 µM.
Turning to `CN1CCC(n2c(=O)n(Cc3ccc(-c4nnc(C(F)F)o4)cc3F)c3ccc(-c4ccco4)cc32)CC1` [Compound 140, 1-(4-(5-(difluoromethyl)-1,3,4-oxadiazole-2-yl)-2-fluorobenzyl)-5-(furan-2-yl)-3-(1-methylpiperidine-4-yl)-1,3-dihydro-2H-benzo[d]imidazole-2-one], the IC50 on HDAC6 human recombinant was 54 nM; at HDAC1, above 10 µM.
For the compound `CN1CCC(n2c(=O)n(Cc3ccc(-c4nnc(C(F)F)o4)cn3)c3cc(Br)ccc32)CC1` [Compound 141, 5-bromo-3-((5-(5-(difluoromethyl)-1,3,4-oxadiazole-2-yl)pyridine-2-yl)methyl)-1-(1-methylpiperidine-4-yl)-1,3-dihydro-2H-benzo[d]imidazole-2-one], the IC50 at HDAC6 human recombinant is 12 nM; on HDAC1, above 10 µM.
Regarding `Cn1c(=O)n(Cc2ccc(-c3nnc(C(F)F)o3)cn2)c2cc(F)ccc21` [Compound 142, 3-((5-(5-(difluoromethyl)-1,3,4-oxadiazole-2-yl)pyridine-2-yl)methyl)-5-fluoro-1-methy 1-1,3-dihydro-2H-benzo[d]imidazole-2-one], the figures for the IC50 at HDAC6 human recombinant and on HDAC1 were 18 nM and above 10 µM, respectively.
Take `Cn1c(=O)n(Cc2ccc(-c3nnc(C(F)F)o3)cc2F)c2cc(F)ccc21` [Compound 143, 3-(4-(5-(difluoromethyl)-1,3,4-oxadiazole-2-yl)-2-fluorobenzyl)-5-fluoro-1-methyl-1,3-dihydro-2H-benzo[d]imidazole-2-one]: the IC50 was 71 nM on HDAC6 human recombinant and above 10 µM at HDAC1.
Consider `Cn1c(=O)n(Cc2ccc(-c3nnc(C(F)F)o3)cc2)c2cc(F)ccc21` [Compound 144, 3-(4-(5-(difluoromethyl)-1,3,4-oxadiazole-2-yl)benzyl)-5-fluoro-1-methyl-1,3-dihydro-2H-benzo[d]imidazole-2-one], for which the IC50 was 77 nM at HDAC6 human recombinant and above 10 µM at HDAC1.
In the case of `CN1CCC(n2c(=O)n(Cc3ccc(-c4nnc(C(F)F)o4)cn3)c3cc(-c4cccnc4)ccc32)CC1` [Compound 145, 3-((5-(5-(difluoromethyl)-1,3,4-oxadiazole-2-yl)pyridine-2-yl)methyl)-1-(1-methylpiperidine-4-yl)-5-(pyridine-3-yl)-1,3-dihydro-2H-benzo[d]imidazole-2-one], the results for the IC50 at HDAC6 human recombinant and at HDAC1 were 315 nM and above 10 µM, respectively.
The like results for `Cc1ccc(-c2ccc3c(c2)n(Cc2ccc(-c4nnc(C(F)F)o4)cn2)c(=O)n3C2CCN(C)CC2)o1` [Compound 146, 3-((5-(5-(difluoromethyl)-1,3,4-oxadiazole-2-yl)pyridine-2-yl)methyl)-5-(5-methylfuran-2-yl)-1-(1-methylpiperidine-4-yl)-1,3-dihydro-2H-benzo[d]imidazole-2-one] were, in that order, 130 nM and above 10 µM.
